Test results published in ChEMBL document CHEMBL1201862, “PubChem BioAssay data set” (2004).
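96-well plates; 48 h exposure; 5 concentrations. Endpoints by linear interpolation between flanking doses. Not reached: highest tested concentration assigned. The concentration for 50% growth inhibition is given as GI50.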 Calls of active or inactive are those of the source. Rule as the data show it: active = GI50 up to about 1.1 µM and inactive = higher.

Key:
Test in all cases: NCI anticancer screen, dose series, 48 h
HCT-15 = tested on: HCT-15
OVCAR-4 = tested on: OVCAR-4
SF-268 = tested on: SF-268
SF-295 = tested on: SF-295
PC-3 = tested on: PC-3
SR = tested on: SR
NCI-H460 = tested on: NCI-H460
786-0 = tested on: 786-0
EKVX = tested on: EKVX
COLO 205 = tested on: COLO 205
NCI/ADR-RES = tested on: NCI/ADR-RES
HCC 2998 = tested on: HCC 2998
NCI-H23 = tested on: NCI-H23
SK-MEL-2 = tested on: SK-MEL-2
KM12 = tested on: KM12
SK-MEL-5 = tested on: SK-MEL-5
IGROV-1 = tested on: IGROV-1
SW-620 = tested on: SW-620
Malme-3M = tested on: Malme-3M
A549 = tested on: A549
HT-29 = tested on: HT-29
UACC-257 = tested on: UACC-257
HOP-62 = tested on: HOP-62
DU-145 = tested on: DU-145
OVCAR-8 = tested on: OVCAR-8
UACC-62 = tested on: UACC-62
SF-539 = tested on: SF-539
HCT-116 = tested on: HCT-116
LOX IMVI = tested on: LOX IMVI
NCI-H226 = tested on: NCI-H226
OVCAR-5 = tested on: OVCAR-5
MOLT-4 = tested on: MOLT-4
SK-MEL-28 = tested on: SK-MEL-28
CCRF-CEM = tested on: CCRF-CEM
UO-31 = tested on: UO-31
MDA-MB-231 = tested on: MDA-MB-231
SNB-19 = tested on: SNB-19
RXF 393 = tested on: RXF 393
T47D = tested on: T47D
HOP-92 = tested on: HOP-92
M14 = tested on: M14
RPMI-8226 = tested on: RPMI-8226
SK-OV-3 = tested on: SK-OV-3
BT-549 = tested on: BT-549
K562 = tested on: K562
MDA-N = tested on: MDA-N
OVCAR-3 = tested on: OVCAR-3
SNB-75 = tested on: SNB-75
A498 = tested on: A498
NCI-H522 = tested on: NCI-H522
MCF7 = tested on: MCF7
MDA-MB-435 = tested on: MDA-MB-435
Hs-578T = tested on: Hs-578T
HL-60 = tested on: HL-60
ACHN = tested on: ACHN
SN12C = tested on: SN12C
TK-10 = tested on: TK-10
U-251 = tested on: U-251
CAKI-1 = tested on: CAKI-1

SMILES: CCCCCCc1cc2cc(-c3csc(CC#N)n3)c(=O)oc2cc1O
- GI50 (HCT-15): > 100 µM
- GI50 (OVCAR-4): 3.45 µM (inactive)
- GI50 (SF-268): 18.7 µM (inactive)
- GI50 (SF-295): 36.6 µM (inactive)
- GI50 (PC-3): > 100 µM (inactive)
- GI50 (SR): > 56.6 µM (inactive)
- GI50 (NCI-H460): 8.55 µM (inactive)
- GI50 (786-0): 7.62 µM (inactive)
- GI50 (EKVX): > 100 µM (inactive)
- GI50 (COLO 205): > 100 µM (inactive)
- GI50 (NCI/ADR-RES): 6.35 µM (inactive)
- GI50 (HCC 2998): > 100 µM (inactive)
- GI50 (NCI-H23): 22.1 µM (inactive)
- GI50 (SK-MEL-2): > 100 µM (inactive)
- GI50 (KM12): 22.5 µM (inactive)
- GI50 (SK-MEL-5): 32.7 µM (inactive)
- GI50 (IGROV-1): 29.8 µM (inactive)
- GI50 (SW-620): 26.2 µM (inactive)
- GI50 (Malme-3M): > 100 µM (inactive)
- GI50 (A549): > 100 µM (inactive)
- GI50 (HT-29): > 100 µM (inactive)
- GI50 (UACC-257): > 100 µM (inactive)
- GI50 (HOP-62): 34.9 µM (inactive)
- GI50 (DU-145): > 100 µM (inactive)
- GI50 (OVCAR-8): 13 µM (inactive)
- GI50 (UACC-62): 14.4 µM (inactive)
- GI50 (SF-539): 5.71 µM (inactive)
- GI50 (HCT-116): 5.89 µM (inactive)
- GI50 (LOX IMVI): > 100 µM (inactive)
- GI50 (NCI-H226): 22.9 µM (inactive)
- GI50 (OVCAR-5): > 100 µM (inactive)
- GI50 (MOLT-4): 43.1 µM (inactive)
- GI50 (SK-MEL-28): > 100 µM (inactive)
- GI50 (CCRF-CEM): > 49.2 µM (inactive)
- GI50 (UO-31): 27 µM (inactive)
- GI50 (MDA-MB-231): 11.7 µM (inactive)
- GI50 (SNB-19): 14.4 µM (inactive)
- GI50 (RXF 393): > 33.2 µM (inactive)
- GI50 (T47D): > 100 µM (inactive)
- GI50 (HOP-92): 7.48 µM (inactive)
- GI50 (M14): > 100 µM (inactive)
- GI50 (RPMI-8226): 32.4 µM (inactive)
- GI50 (SK-OV-3): 13.3 µM (inactive)
- GI50 (BT-549): 6.17 µM (inactive)
- GI50 (K562): > 69.2 µM (inactive)
- GI50 (MDA-N): > 100 µM (inactive)
- GI50 (OVCAR-3): 11.1 µM (inactive)
- GI50 (SNB-75): 32.1 µM (inactive)
- GI50 (A498): 56 µM (inactive)
- GI50 (NCI-H522): 10.4 µM (inactive)
- GI50 (MCF7): > 49.4 µM (inactive)
- GI50 (MDA-MB-435): > 100 µM (inactive)
- GI50 (Hs-578T): 12.4 µM (inactive)
- GI50 (HL-60): > 44.3 µM (inactive)
- GI50 (ACHN): 21.9 µM (inactive)
- GI50 (SN12C): 99.1 µM (inactive)
- GI50 (TK-10): > 100 µM (inactive)
- GI50 (U-251): 6.4 µM (inactive)
- GI50 (CAKI-1): > 44.6 µM (inactive)

SMILES: COC(=O)[C@]1(c2cc3ccccc3n2S(=O)(=O)c2ccccc2)CC2CN(C(C)=O)C1CC2=O (some centres not stated)
- GI50 (HCT-15): 2.48 µM
- GI50 (OVCAR-4): 3.58 µM (inactive)
- GI50 (SF-268): 2.34 µM (inactive)
- GI50 (SF-295): 12.6 µM (inactive)
- GI50 (PC-3): 1.64 µM (inactive)
- GI50 (SR): 1.59 µM (inactive)
- GI50 (NCI-H460): 3.14 µM (inactive)
- GI50 (786-0): 1.28 µM (inactive)
- GI50 (EKVX): 2.02 µM (inactive)
- GI50 (COLO 205): 2.42 µM (inactive)
- GI50 (NCI/ADR-RES): 2.87 µM (inactive)
- GI50 (HCC 2998): 3.23 µM (inactive)
- GI50 (NCI-H23): 3.1 µM (inactive)
- GI50 (SK-MEL-2): 2.77 µM (inactive)
- GI50 (KM12): 2.69 µM (inactive)
- GI50 (SK-MEL-5): 3.27 µM (inactive)
- GI50 (IGROV-1): 2.57 µM (inactive)
- GI50 (SW-620): 1.94 µM (inactive)
- GI50 (Malme-3M): 2.77 µM (inactive)
- GI50 (A549): 3.05 µM (inactive)
- GI50 (HT-29): 1.96 µM (inactive)
- GI50 (UACC-257): 2.77 µM (inactive)
- GI50 (HOP-62): 5.08 µM (inactive)
- GI50 (DU-145): 3.46 µM (inactive)
- GI50 (OVCAR-8): 3.43 µM (inactive)
- GI50 (UACC-62): 1.67 µM (inactive)
- GI50 (SF-539): 2.91 µM (inactive)
- GI50 (HCT-116): 1.89 µM (inactive)
- GI50 (LOX IMVI): 1.9 µM (inactive)
- GI50 (NCI-H226): 2.17 µM (inactive)
- GI50 (OVCAR-5): 3.3 µM (inactive)
- GI50 (MOLT-4): 0.855 µM (active)
- GI50 (SK-MEL-28): 3.94 µM (inactive)
- GI50 (CCRF-CEM): 0.637 µM (active)
- GI50 (UO-31): 1.82 µM (inactive)
- GI50 (MDA-MB-231): 2.58 µM (inactive)
- GI50 (SNB-19): 3.26 µM (inactive)
- GI50 (RXF 393): 1.77 µM (inactive)
- GI50 (T47D): 2.16 µM (inactive)
- GI50 (HOP-92): 5.52 µM (inactive)
- GI50 (M14): 1.96 µM (inactive)
- GI50 (RPMI-8226): 0.65 µM (active)
- GI50 (SK-OV-3): 8.13 µM (inactive)
- GI50 (BT-549): 2.61 µM (inactive)
- GI50 (K562): 1.98 µM (inactive)
- GI50 (MDA-N): 2.79 µM (inactive)
- GI50 (OVCAR-3): 1.99 µM (inactive)
- GI50 (SNB-75): 3.15 µM (inactive)
- GI50 (A498): 9.64 µM (inactive)
- GI50 (NCI-H522): 1.75 µM (inactive)
- GI50 (MCF7): 1.69 µM (inactive)
- GI50 (MDA-MB-435): 2.34 µM (inactive)
- GI50 (Hs-578T): 5.94 µM (inactive)
- GI50 (HL-60): 1.34 µM (inactive)
- GI50 (ACHN): 1.91 µM (inactive)
- GI50 (SN12C): 2.68 µM (inactive)
- GI50 (TK-10): 7.73 µM (inactive)
- GI50 (U-251): 1.6 µM (inactive)
- GI50 (CAKI-1): 2.68 µM (inactive)

SMILES: C1CN(C23OC4(N5CCOCC5)C5C6CC(C7C6C4C72)C53)CCO1 (configuration not stated)
- GI50 (HCT-15): > 100 µM
- GI50 (OVCAR-4): > 100 µM (inactive)
- GI50 (SF-268): > 100 µM (inactive)
- GI50 (SF-295): > 100 µM (inactive)
- GI50 (PC-3): > 100 µM (inactive)
- GI50 (SR): > 100 µM (inactive)
- GI50 (NCI-H460): > 100 µM (inactive)
- GI50 (786-0): > 100 µM (inactive)
- GI50 (EKVX): > 100 µM (inactive)
- GI50 (COLO 205): > 100 µM (inactive)
- GI50 (NCI/ADR-RES): > 100 µM (inactive)
- GI50 (HCC 2998): > 100 µM (inactive)
- GI50 (NCI-H23): > 100 µM (inactive)
- GI50 (SK-MEL-2): > 100 µM (inactive)
- GI50 (KM12): > 100 µM (inactive)
- GI50 (SK-MEL-5): > 100 µM (inactive)
- GI50 (IGROV-1): > 100 µM (inactive)
- GI50 (SW-620): > 100 µM (inactive)
- GI50 (Malme-3M): > 100 µM (inactive)
- GI50 (A549): > 100 µM (inactive)
- GI50 (HT-29): > 100 µM (inactive)
- GI50 (UACC-257): > 100 µM (inactive)
- GI50 (HOP-62): > 100 µM (inactive)
- GI50 (DU-145): > 100 µM (inactive)
- GI50 (OVCAR-8): > 100 µM (inactive)
- GI50 (UACC-62): > 100 µM (inactive)
- GI50 (SF-539): > 100 µM (inactive)
- GI50 (HCT-116): > 100 µM (inactive)
- GI50 (LOX IMVI): > 100 µM (inactive)
- GI50 (NCI-H226): > 100 µM (inactive)
- GI50 (OVCAR-5): > 100 µM (inactive)
- GI50 (MOLT-4): > 100 µM (inactive)
- GI50 (SK-MEL-28): > 100 µM (inactive)
- GI50 (CCRF-CEM): > 100 µM (inactive)
- GI50 (UO-31): > 100 µM (inactive)
- GI50 (MDA-MB-231): > 100 µM (inactive)
- GI50 (SNB-19): > 100 µM (inactive)
- GI50 (RXF 393): > 100 µM (inactive)
- GI50 (T47D): > 100 µM (inactive)
- GI50 (HOP-92): > 100 µM (inactive)
- GI50 (M14): > 100 µM (inactive)
- GI50 (RPMI-8226): > 100 µM (inactive)
- GI50 (SK-OV-3): > 100 µM (inactive)
- GI50 (BT-549): > 100 µM (inactive)
- GI50 (K562): > 100 µM (inactive)
- GI50 (MDA-N): > 100 µM (inactive)
- GI50 (OVCAR-3): > 100 µM (inactive)
- GI50 (SNB-75): > 70.8 µM (inactive)
- GI50 (A498): > 100 µM (inactive)
- GI50 (NCI-H522): > 83.4 µM (inactive)
- GI50 (MCF7): > 100 µM (inactive)
- GI50 (MDA-MB-435): > 100 µM (inactive)
- GI50 (Hs-578T): > 100 µM (inactive)
- GI50 (HL-60): > 100 µM (inactive)
- GI50 (ACHN): > 31.6 µM (inactive)
- GI50 (SN12C): > 100 µM (inactive)
- GI50 (TK-10): > 100 µM (inactive)
- GI50 (U-251): > 100 µM (inactive)
- GI50 (CAKI-1): > 100 µM (inactive)
